The values below are quoted from earlier work in patent publication US20140227392A1, “BEER AND RELEVANT PRODUCTION METHOD” (FARCHIONI OLII - S.P.A., priority 2011, published 2014).

For this series the following is noted: compared with its precursor daidzein.

`Oc1ccc([C@H]2COc3cc(O)ccc3C2)cc1` [S-(−) equol]: the antioxidant activity result is recorded as “significantly greater in antioxidant activity than its precursor”.
